Assay results: patent US12077503B2, “Substituted cyclic amides and their use as herbicides” (FMC CORPORATION, priority 2015, dated 2024)

How the values were obtained:
Format in all cases: in vivo
Kochia (Kochia scoparia) [1] = experiment: Test A preemergence; conditions: Bassia scoparia, pre-emergence, 240 h, preemergence, 0 to 100 scale where 0 is no effect and 100 is complete control, read-out: Kochia plant response rating
In short: (§1)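 Seeded soil received test chemicals as a preemergence directed spray, and seedlings at one to two leaves, 2–10 cm tall, received them postemergence, in a non-phytotoxic, surfactant-containing solvent mixture. Pots were held in a greenhouse for approximately 10 d, then rated for injury from 0, no effect, to 100, complete control.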

[2] = test system: barnyardgrass (Echinochloa crus-galli); experiment: Test A preemergence; conditions: Echinochloa crus-galli, pre-emergence, 240 h, preemergence, 0 to 100 scale where 0 is no effect and 100 is complete control, read-out: Barnyardgrass plant response rating
In short: as §1

[3] = test system: giant foxtail (Setaria faberii); experiment: Test A preemergence; conditions: Setaria faberi, pre-emergence, 240 h, preemergence, 0 to 100 scale where 0 is no effect and 100 is complete control, read-out: Foxtail, Giant plant response rating
In short: as §1

[4] = test system: pigweed (Amaranthus retroflexus); experiment: Test A preemergence; conditions: Amaranthus retroflexus, pre-emergence, 240 h, preemergence, 0 to 100 scale where 0 is no effect and 100 is complete control, read-out: Pigweed plant response rating
[5] = test system: ragweed (common ragweed, Ambrosia elatior); experiment: Test A preemergence; conditions: Ambrosia artemisiifolia, pre-emergence, 240 h, preemergence, 0 to 100 scale where 0 is no effect and 100 is complete control, read-out: Ragweed plant response rating
In short: as §1

[6] = test system: ryegrass, Italian (Italian ryegrass, Lolium multiflorum); experiment: Test A preemergence; conditions: Lolium multiflorum, pre-emergence, 240 h, preemergence, 0 to 100 scale where 0 is no effect and 100 is complete control, read-out: Ryegrass, Italian plant response rating
In short: as §1

[7] = test system: Galium (catchweed bedstraw, Galium aparine); experiment: Test A postemergence; conditions: Galium, post-emergence, 240 h, postemergence
In short: as §1

Kochia (Kochia scoparia) [8] = experiment: Test A postemergence; conditions: Bassia scoparia, post-emergence, 240 h, postemergence
In short: as §1

[9] = test system: blackgrass (Alopecurus myosuroides); experiment: Test A postemergence; conditions: Alopecurus myosuroides, post-emergence, 240 h, postemergence
In short: as §1

corn (Zea mays) = experiment: Test A postemergence; conditions: Zea mays, post-emergence, 240 h, postemergence
In short: as §1

[10] = test system: giant foxtail (Setaria faberii); experiment: Test A postemergence; conditions: Setaria faberi, post-emergence, 240 h, postemergence
In short: as §1

[11] = test system: pigweed (Amaranthus retroflexus); experiment: Test A postemergence; conditions: Amaranthus retroflexus, post-emergence, 240 h, postemergence
In short: as §1

[12] = test system: ragweed (common ragweed, Ambrosia elatior); experiment: Test A postemergence; conditions: Ambrosia artemisiifolia, post-emergence, 240 h, postemergence
In short: as §1

[13] = test system: ryegrass, Italian (Italian ryegrass, Lolium multiflorum); experiment: Test A postemergence; conditions: Lolium multiflorum, post-emergence, 240 h, postemergence
In short: as §1

[14] = test system: wheat (Triticum aestivum); experiment: Test A postemergence; conditions: Triticum aestivum, post-emergence, 240 h, postemergence
In short: as §1

[15] = 125 g ai/ha, visual injury rating, approximately 10 d

SMILES: COc1cc([C@H]2CN(C)C(=O)[C@@H]2C(=O)Nc2cccc(F)c2F)cc(OC)c1OC [Compound 1210]
- pest or weed control at 125 g/ha (Kochia (Kochia scoparia) [1]; [15]): 0%
- pest or weed control at 500 g/ha (Kochia (Kochia scoparia) [1]; 500 g ai/ha): 10%
- pest or weed control at 125 g/ha [2, 15]: 90%
- pest or weed control at 500 g/ha ([2]; 500 g ai/ha): 100%
- pest or weed control at 125 g/ha [3, 15]: 100%
- pest or weed control at 500 g/ha ([3]; 500 g ai/ha): 100%
- pest or weed control at 125 g/ha [4, 15]: 0%
- pest or weed control at 500 g/ha ([4]; 500 g ai/ha): 0%
- pest or weed control at 125 g/ha [5, 15]: 0%
- pest or weed control at 500 g/ha ([5]; 500 g ai/ha): 0%
- pest or weed control at 125 g/ha [6, 15]: 20%
- pest or weed control at 500 g/ha ([6]; 500 g ai/ha): 50%
- pest or weed control at 125 g/ha ([7]; 125 g ai/ha, visual injury vs untreated controls after approx. 10 d, 0 = no effect, 100 = complete control, read-out: Galium plant response rating (0 to 100 scale)): 0%
- pest or weed control at 500 g/ha ([7]; 500 g ai/ha, 0 to 100 scale, 0 is no effect, 100 is complete control, read-out: Galium plant response rating): 0%
- pest or weed control at 125 g/ha (Kochia (Kochia scoparia) [8]; 125 g ai/ha, visual injury vs untreated controls after approx. 10 d, 0 = no effect, 100 = complete control, read-out: Kochia plant response rating (0 to 100 scale)): 0%
- pest or weed control at 500 g/ha (Kochia (Kochia scoparia) [8]; 500 g ai/ha, 0 to 100 scale, 0 is no effect, 100 is complete control, read-out: Kochia plant response rating): 0%
- pest or weed control at 125 g/ha ([9]; 125 g ai/ha, visual injury vs untreated controls after approx. 10 d, 0 = no effect, 100 = complete control, read-out: Blackgrass plant response rating (0 to 100 scale)): 0%
- pest or weed control at 500 g/ha ([9]; 500 g ai/ha, 0 to 100 scale, 0 is no effect, 100 is complete control, read-out: Blackgrass plant response rating): 50%
- plant injury at 125 g/ha (corn (Zea mays); 125 g ai/ha, visual injury vs untreated controls after approx. 10 d, 0 = no effect, 100 = complete control, read-out: Corn plant response rating (0 to 100 scale)): 0%
- plant injury at 500 g/ha (corn (Zea mays); 500 g ai/ha, 0 to 100 scale, 0 is no effect, 100 is complete control, read-out: Corn plant response rating): 50%
- pest or weed control at 125 g/ha ([10]; 125 g ai/ha, visual injury vs untreated controls after approx. 10 d, 0 = no effect, 100 = complete control, read-out: Foxtail, Giant plant response rating (0 to 100 scale)): 90%
- pest or weed control at 500 g/ha ([10]; 500 g ai/ha, 0 to 100 scale, 0 is no effect, 100 is complete control, read-out: Foxtail, Giant plant response rating): 90%
- pest or weed control at 125 g/ha ([11]; 125 g ai/ha, visual injury vs untreated controls after approx. 10 d, 0 = no effect, 100 = complete control, read-out: Pigweed plant response rating (0 to 100 scale)): 0%
- pest or weed control at 500 g/ha ([11]; 500 g ai/ha, 0 to 100 scale, 0 is no effect, 100 is complete control, read-out: Pigweed plant response rating): 0%
- pest or weed control at 125 g/ha ([12]; 125 g ai/ha, visual injury vs untreated controls after approx. 10 d, 0 = no effect, 100 = complete control, read-out: Ragweed plant response rating (0 to 100 scale)): 0%
- pest or weed control at 500 g/ha ([12]; 500 g ai/ha, 0 to 100 scale, 0 is no effect, 100 is complete control, read-out: Ragweed plant response rating): 0%
- pest or weed control at 125 g/ha ([13]; 125 g ai/ha, visual injury vs untreated controls after approx. 10 d, 0 = no effect, 100 = complete control, read-out: Ryegrass, Italian plant response rating (0 to 100 scale)): 30%
- pest or weed control at 500 g/ha ([13]; 500 g ai/ha, 0 to 100 scale, 0 is no effect, 100 is complete control, read-out: Ryegrass, Italian plant response rating): 60%
- plant injury at 125 g/ha ([14]; 125 g ai/ha, visual injury vs untreated controls after approx. 10 d, 0 = no effect, 100 = complete control, read-out: Wheat plant response rating (0 to 100 scale)): 0%
- plant injury at 500 g/ha ([14]; 500 g ai/ha, 0 to 100 scale, 0 is no effect, 100 is complete control, read-out: Wheat plant response rating): 60%
